Drawing on US20180194762A1 (Pharmacyclics LLC, priority 2017, published 2018), this text covers IC50 and TEC/Btk for 13 molecules.

Common to all, as to assay type: biochemical
Assay [1] has as its target T1, TEC (Homo sapiens, UniProt P42680).
T1 sequence (P42680 1-631): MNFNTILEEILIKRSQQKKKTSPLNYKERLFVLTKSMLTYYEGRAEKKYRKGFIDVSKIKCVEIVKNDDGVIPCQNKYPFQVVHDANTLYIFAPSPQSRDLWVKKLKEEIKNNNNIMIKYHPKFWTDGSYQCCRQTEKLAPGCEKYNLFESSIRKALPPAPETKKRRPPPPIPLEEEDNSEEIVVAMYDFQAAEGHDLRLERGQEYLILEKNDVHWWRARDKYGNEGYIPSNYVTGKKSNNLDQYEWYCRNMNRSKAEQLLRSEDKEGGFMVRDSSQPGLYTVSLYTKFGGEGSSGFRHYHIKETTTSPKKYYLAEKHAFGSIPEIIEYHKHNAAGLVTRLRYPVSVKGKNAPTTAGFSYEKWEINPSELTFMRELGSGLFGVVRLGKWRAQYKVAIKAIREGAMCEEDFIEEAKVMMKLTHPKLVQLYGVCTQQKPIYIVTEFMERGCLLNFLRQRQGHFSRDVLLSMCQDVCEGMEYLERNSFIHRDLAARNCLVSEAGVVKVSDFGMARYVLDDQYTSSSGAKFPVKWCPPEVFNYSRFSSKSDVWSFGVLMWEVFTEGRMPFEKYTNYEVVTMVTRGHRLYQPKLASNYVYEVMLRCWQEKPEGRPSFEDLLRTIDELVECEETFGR
As to the kind of experiment: Inhibition of a panel of kinases (in vitro HotSpot kinase assay, 33P-ATP, 1 μM ATP). The settings on record: for pIC50: HotSpot kinase assay, 1 μM ATP; for TEC/Btk: ratio of TEC IC50 to Btk IC50 (selectivity). In outline: (§1)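 Purified kinase enzymes were incubated with an appropriate substrate and 33P-labelled ATP at 1 μM ATP. Inhibition was measured radiometrically from incorporation of the 33P label.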

Assay [2] deals with T2, Btk (Homo sapiens, UniProt Q06187).
T2 construct: purified from insect cells as a full-length construct containing a N-terminal 6X-His tag; His6 (N); made in house; host or cells: insect cells (Method C)
As to the kind of experiment: Btk in vitro inhibitory activity (one of Method A TR-FRET, Method B electrophoretic mobility shift, Method C radiometric filter binding). In outline: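 Method A: TR-FRET with 0.5 nM Btk at [ATP]=Km, EDTA-quenched, 665/615 nm ratio; Ki(app) converted to IC50. Method B: 1 nM full-length His6 human BTK, 1 μM FAM peptide, pH 7.5, mobility-shift product/sum ratio, 12-point 4-parameter fit. Method C: radiometric filter binding, 8 nM His-tagged BTK, 0.2 mg/mL poly-Glu-Tyr.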
(A gel shift assay detects complexes by their altered migration in electrophoresis.)

Assay [3] concerns the target T3, panel of kinases (Homo sapiens, UniProt P51813).
T3 sequence (P51813 1-675): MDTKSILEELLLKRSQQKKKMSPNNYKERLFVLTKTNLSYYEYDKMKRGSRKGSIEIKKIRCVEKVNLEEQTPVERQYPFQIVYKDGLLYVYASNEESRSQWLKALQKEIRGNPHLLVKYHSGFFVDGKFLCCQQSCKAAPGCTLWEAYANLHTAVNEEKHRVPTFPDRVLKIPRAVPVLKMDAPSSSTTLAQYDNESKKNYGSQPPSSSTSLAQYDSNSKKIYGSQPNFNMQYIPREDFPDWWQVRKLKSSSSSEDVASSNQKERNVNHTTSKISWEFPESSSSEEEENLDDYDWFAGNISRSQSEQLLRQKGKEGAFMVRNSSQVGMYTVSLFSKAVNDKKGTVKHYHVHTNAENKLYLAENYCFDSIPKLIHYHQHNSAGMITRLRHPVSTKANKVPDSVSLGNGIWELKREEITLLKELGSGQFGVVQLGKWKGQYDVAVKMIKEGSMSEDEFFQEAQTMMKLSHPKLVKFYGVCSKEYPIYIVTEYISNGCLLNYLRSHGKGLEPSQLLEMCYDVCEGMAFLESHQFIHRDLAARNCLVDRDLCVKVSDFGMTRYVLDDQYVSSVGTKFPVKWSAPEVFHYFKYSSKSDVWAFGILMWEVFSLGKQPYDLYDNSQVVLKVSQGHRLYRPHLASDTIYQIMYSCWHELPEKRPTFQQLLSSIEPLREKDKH
The assay can be described thus: Inhibition of a panel of kinases (in vitro HotSpot kinase assay, 33P-ATP, 1 μM ATP), other kinases. The settings on record: BMX wild-type, read-out: BMX-WT IC50. In outline:
as §1

[4] abbreviates: method is one of A, B or C, not stated which, read-out: IC50 values against Btk.
[5] abbreviates: wild-type Btk, read-out: Btk-WT IC50.

The structures appear in SMILES notation. pIC50: −log10 of the molar value. Where two headings read alike, the source gives them in different places.

T2 sequence (Q06187 whole entry): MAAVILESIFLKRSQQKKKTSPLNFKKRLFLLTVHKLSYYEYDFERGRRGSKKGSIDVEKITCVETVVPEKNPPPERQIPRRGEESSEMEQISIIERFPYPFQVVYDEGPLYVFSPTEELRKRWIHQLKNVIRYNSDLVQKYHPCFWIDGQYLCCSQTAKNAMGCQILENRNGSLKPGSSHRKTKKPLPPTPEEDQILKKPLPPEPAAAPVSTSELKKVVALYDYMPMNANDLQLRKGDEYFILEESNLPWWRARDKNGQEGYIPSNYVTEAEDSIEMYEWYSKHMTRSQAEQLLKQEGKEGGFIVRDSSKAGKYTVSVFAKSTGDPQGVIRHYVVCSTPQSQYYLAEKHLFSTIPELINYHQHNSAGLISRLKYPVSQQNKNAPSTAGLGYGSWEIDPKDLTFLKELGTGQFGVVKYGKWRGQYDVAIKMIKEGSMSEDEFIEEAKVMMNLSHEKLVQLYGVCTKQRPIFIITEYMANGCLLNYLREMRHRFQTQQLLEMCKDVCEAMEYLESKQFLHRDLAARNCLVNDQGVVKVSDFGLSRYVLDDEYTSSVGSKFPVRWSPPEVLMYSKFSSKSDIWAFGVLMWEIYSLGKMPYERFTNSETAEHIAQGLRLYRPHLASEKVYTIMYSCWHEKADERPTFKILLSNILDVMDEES

For `C=CC(=O)N1CC[C@@H](Nc2n[nH]c3nccc(-c4ccc(CNC(=O)c5cnc(C(C)C)o5)c(F)c4)c23)C1` [Example 176, N-{[2-fluoro-4-(3-{[(3R)-1-(prop-2-enoyl)pyrrolidin-3-yl]amino}-1H-pyrazolo[3,4-b]pyridin-4-yl)phenyl]methyl}-2-(propan-2-yl)-1,3-oxazole-5-carboxamide], the pIC50 – broadly, the negative decadic logarithm of the IC50, by convention in mol/L – in assay [1] is 6.83; in assay [2] (setting [4]), above 8.00; in assay [2] (setting [5]) it was 8.83; in assay [3] it was 6.84. Also, the TEC/Btk in assay [1] turned out to be 100.
Taken in the same sequence, the figures for `C=CC(=O)N1CC[C@@H](Nc2n[nH]c3nccc(-c4ccc(CNC(=O)c5cnc(N(C)C)o5)c(F)c4)c23)C1` [Example 177, 2-(dimethylamino)-N-{[2-fluoro-4-(3-{[(3R)-1-(prop-2-enoyl)pyrrolidin-3-yl]amino}-1H-pyrazolo[3,4-b]pyridin-4-yl)phenyl]methyl}-1,3-oxazole-5-carboxamide] were 7.00, above 8.00, 8.41, 7.37 and 25.
With `CC(C)(C)c1noc(C(=O)NCc2ccc(-c3ccnc4[nH]nc(N5CCC(N)CC5)c34)cc2F)n1` [Example 178, N-({4-[3-(4-aminopiperidin-1-yl)-1H-pyrazolo[3,4-b]pyridin-4-yl]-2-fluorophenyl}methyl)-3-tert-butyl-1,2,4-oxadiazole-5-carboxamide], the negative logarithm of the IC50 (pIC50) in assay [1] was 6.14; in assay [2] (setting [4]) it was above 8.00; in assay [2] (setting [5]), 9.22; in assay [3], 5.93. Also, the TEC/Btk in assay [1] is recorded as 1207.
Taken in the same sequence, the figures for `C=CC(=O)NC1CCN(c2n[nH]c3nccc(-c4ccc(CNC(=O)c5nc(C(C)(C)C)no5)c(F)c4)c23)CC1` [Example 179, 3-tert-butyl-N-[(2-fluoro-4-{3-[4-(prop-2-enamido)piperidin-1-yl]-1H-pyrazolo[3,4-b]pyridin-4-yl}phenyl)methyl]-1,2,4-oxadiazole-5-carboxamide] were 6.66, above 8.00, 10.02, 6.52 and 2294.
Regarding `CC(C)(C)c1nc(C(=O)NCc2ccc(-c3ccnc4[nH]nc(N[C@@H]5CCNC5)c34)cc2F)co1` [Example 180, 2-tert-butyl-N-{[2-fluoro-4-(3-{[(3R)-pyrrolidin-3-yl]amino}-1H-pyrazolo[3,4-b]pyridin-4-yl)phenyl]methyl}-1,3-oxazole-4-carboxamide], the pIC50 in assay [1] was 5.14; in assay [2] (setting [5]), 7.62; in assay [3], below 5.00. In addition, in assay [1], the TEC/Btk worked out at 302.
For the molecule `CC(C)c1noc(C(=O)NCc2ccc(-c3ccnc4[nH]nc(N5CC[C@@H](N)C5)c34)cc2F)n1` [Example 181, N-[(4-{3-[(3R)-3-aminopyrrolidin-1-yl]-1H-pyrazolo[3,4-b]pyridin-4-yl}-2-fluorophenyl)methyl]-3-(propan-2-yl)-1,2,4-oxadiazole-5-carboxamide], the pIC50 in assay [1] is 6.00; in assay [2] (setting [5]) it was 8.22; in assay [3], 6.12. Besides, the TEC/Btk in assay [1] is 166.
On to `CC(C)c1cc(C(=O)NCc2ccc(-c3ccnc4[nH]nc(N5CC[C@@H](N)C5)c34)cc2F)on1` [Example 182, N-[(4-{3-[(3R)-3-aminopyrrolidin-1-yl]-1H-pyrazolo[3,4-b]pyridin-4-yl}-2-fluorophenyl)methyl]-3-(propan-2-yl)-1,2-oxazole-5-carboxamide], for which the negative logarithm of the IC50 (pIC50) in assay [1] is 5.58; in assay [2] (setting [5]), 7.84; in assay [3], 5.88. In assay [1], the TEC/Btk is given as 180.
As to `C=CC(=O)N[C@@H]1CCN(c2n[nH]c3nccc(-c4ccc(CNC(=O)c5cc(C(C)C)no5)c(F)c4)c23)C1` [Example 184, N-{[2-fluoro-4-(3-{(3R)-3-[(prop-2-enoyl)amino]pyrrolidin-1-yl}-1H-pyrazolo[3,4-b]pyridin-4-yl)phenyl]methyl}-3-(propan-2-yl)-1,2-oxazole-5-carboxamide], the negative-log IC50 (pIC50) in assay [1] was 7.48; in assay [2] (setting [5]) it was 10.11; in assay [3], 7.51. Also, the TEC/Btk in assay [1] is listed as 430.
As for `CC(=O)N[C@@H]1CCN(c2n[nH]c3nccc(-c4ccc(CNC(=O)c5cc(C(C)C)no5)c(F)c4)c23)C1` [Example 185, N-[(4-{3-[(3R)-3-acetamidopyrrolidin-1-yl]-1H-pyrazolo[3,4-b]pyridin-4-yl}-2-fluorophenyl)methyl]-3-(propan-2-yl)-1,2-oxazole-5-carboxamide], the results for the pIC50 in assay [1], in assay [2] (setting [5]) and in assay [3] were 5.65, 8.13 and 5.81, respectively. Further, the TEC/Btk in assay [1] stood at 301.
Taken in the same sequence, the figures for `C[C@@H](NC(=O)c1nc(C(C)(C)C)no1)c1ccc(-c2ccnc3[nH]nc(N4CCC(N)CC4)c23)cc1F` [Example 188, N-[(1R)-1-{4-[3-(4-aminopiperidin-1-yl)-1H-pyrazolo[3,4-b]pyridin-4-yl]-2-fluorophenyl}ethyl]-3-tert-butyl-1,2,4-oxadiazole-5-carboxamide] were 6.10, 9.57, 5.82 and 3004.
In the case of `C[C@@H](NC(=O)c1noc(C(C)(C)C)n1)c1ccc(-c2ccnc3[nH]nc(N[C@@H]4CC[C@H](C)N(C(=O)N(C)C)C4)c23)cc1F` [Example 191, (2S,5R)-5-{[4-(4-{(1R)-1-[(5-tert-butyl-1,2,4-oxadiazole-3-carbonyl)amino]ethyl}-3-fluorophenyl)-1H-pyrazolo[3,4-b]pyridin-3-yl]amino}-N,N,2-trimethylpiperidine-1-carboxamide], the values for the pIC50 in assay [1], in assay [2] (setting [5]) and in assay [3] were 6.47, 9.48 and 6.51, respectively. For the same molecule, the TEC/Btk in assay [1] is reported as 1033.
Taken in the same sequence, the figures for `C[C@@H](NC(=O)c1cc(C(C)(C)O)on1)c1ccc(-c2ccnc3[nH]nc(N[C@@H]4CC[C@H](C)N(C(=O)N(C)C)C4)c23)cc1F` [Example 192, (2S,5R)-5-[(4-{3-fluoro-4-[(1R)-1-{[5-(2-hydroxypropan-2-yl)-1,2-oxazole-3-carbonyl]amino}ethyl]phenyl}-1H-pyrazolo[3,4-b]pyridin-3-yl)amino]-N,N,2-trimethylpiperidine-1-carboxamide] were 5.52, 7.54, 5.50 and 105.
Taken in the same sequence, the figures for `C[C@@H](NC(=O)c1nc(C(C)(C)C)no1)c1ccc(-c2ccnc3[nH]nc(N[C@@H]4CC[C@H](C)N(C(=O)N(C)C)C4)c23)cc1F` [Example 193, (2S,5R)-5-{[4-(4-{(1R)-1-[(3-tert-butyl-1,2,4-oxadiazole-5-carbonyl)amino]ethyl}-3-fluorophenyl)-1H-pyrazolo[3,4-b]pyridin-3-yl]amino}-N,N,2-trimethylpiperidine-1-carboxamide] were 6.42, 9.45, 5.98 and 1073.
